Drawing on patent publication US7723527B2 (Janssen Pharmaceutica NV, priority 2003, dated 2010), this text covers Ki for 35 molecules.

For orientation: Ki means a dissociation constant, usually derived from enzyme kinetics or from competition with a known ligand.

In one assay the target is T1, human histamine H4 receptor (Homo sapiens, UniProt Q9H3N8).
T1 construct: expressed in transfected cells; host or cells: SK-N-MC cells or COS7 cells, transiently transfected; cell membranes used
T1 sequence (Q9H3N8 whole entry): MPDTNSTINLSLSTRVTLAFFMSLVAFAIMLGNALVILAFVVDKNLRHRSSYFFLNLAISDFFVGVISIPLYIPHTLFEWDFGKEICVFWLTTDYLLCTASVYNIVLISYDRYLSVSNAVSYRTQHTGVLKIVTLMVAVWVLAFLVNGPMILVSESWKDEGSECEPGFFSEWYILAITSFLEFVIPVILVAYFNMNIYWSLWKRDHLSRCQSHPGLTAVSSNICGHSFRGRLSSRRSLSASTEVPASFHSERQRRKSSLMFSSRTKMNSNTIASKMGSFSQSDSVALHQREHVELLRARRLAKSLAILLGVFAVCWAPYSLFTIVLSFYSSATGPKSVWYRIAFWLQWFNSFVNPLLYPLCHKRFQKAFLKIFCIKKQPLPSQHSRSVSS
The assay is described as follows: Binding assay on recombinant human histamine H4 receptor (3H-histamine displacement).
Settings: not given
As to the method: SK—N-MC cells or COS7 cells were transiently transfected with pH4R and grown in 150 cm^2 tissue culture dishes. Cells were washed with saline solution, scraped with a cell scraper and collected by centrifugation (1000 rpm, 5 min). Cell membranes were prepared by homogenization of the cell pellet in 20 mM Tris-HCl with a polytron tissue homogenizer for 10 s at high speed. Homogenate was centrifuged at 1000 rpm for 5 min at 4° C. The supernatant was then collected and centrifuged at 20,000×g for 25 min at 4° C. The final pellet was resuspended in 50 mM Tris-HCl. Cell membranes were incubated with ^3H-histamine (5-70 nM) in the presence or absence of excess histamine (10,000 nM). Incubation occurred at room temperature for 45 min. Membranes were harvested by rapid filtration over Whatman GF/C filters and washed 4 times with ice-cold 50 mM Tris HCl. Filters were then dried, mixed with scintillant and counted for radioactivity. SK—N-MC or COS7 cells expressing human histamine H4 receptor were used to measure the affinity of binding of other compounds and their ability to displace ^3H-ligand binding by incubating the above-described reaction in the presence of various concentrations of inhibitor or compound to be tested.
For the molecule `CN1CCC(CCCOc2ccc(-c3nc4ccccc4[nH]3)cc2)CC1` [Example 65, 2-{4-[3-(1-Methyl-piperidin-4-yl)-propoxy]-phenyl}-1H-benzoimidazole], the Ki amounted to 0.157 µM.

Still in this assay, the particulars now being: competition binding with 3H-histamine; membranes of SK-N-MC or COS7 cells expressing human H4 receptor; Cheng-Prusoff, KD 5 nM, ligand 5 nM.
`CN1CCN(CCCOc2ccc(-c3nc4cc(Cl)ccc4[nH]3)c(Cl)c2)CC1` [Example 36, 5-Chloro-2-{2-chloro-4-[3-(4-methyl-piperazin-1-yl)-propoxy]-phenyl}-1H-benzoimidazole]: the Ki turned out to be 0.035 µM. Consider `CN1CCN(CCCOc2ccc(-c3nc4cc(Cl)c(F)cc4[nH]3)c(Cl)c2)CC1` [Example 37, 5-Chloro-2-{2-chloro-4-[3-(4-methyl-piperazin-1-yl)-propoxy]-phenyl}-6-fluoro-1H-benzoimidazole], for which the inhibition constant Ki was determined as 0.036 µM.

Regarding `Cc1cc(-c2nc3cc(Cl)ccc3[nH]2)ccc1OCCCN1CCN(C)CC1` [Example 38, 5-Chloro-2-{3-methyl-4-[3-(4-methyl-piperazin-1-yl)-propoxy]-phenyl}-1H-benzoimidazole], the inhibition constant Ki came out at 0.065 µM. For the molecule `Cc1ccc2[nH]c(-c3ccc(OCCCN4CCN(C)CC4)c(Cl)c3)nc2c1` [Example 39, 2-{3-Chloro-4-[3-(4-methyl-piperazin-1-yl)-propoxy]-phenyl}-5-methyl-1H-benzoimidazole], the Ki turned out to be 0.066 µM. On the same count and under the same terms, the same measure for `CN1CCN(CCCOc2ccc(-c3nc4cc(Cl)c(Cl)cc4[nH]3)cc2Cl)CC1` [Example 40, 5,6-Dichloro-2-{3-chloro-4-[3-(4-methyl-piperazin-1-yl)-propoxy]-phenyl}-1H-benzoimidazole]: 0.074 µM; for `Cc1cc2[nH]c(-c3ccc(OCCCN4CCN(C)CC4)c(C)c3)nc2cc1Cl` [Example 41, 5-Chloro-6-methyl-2-{3-methyl-4-[3-(4-methyl-piperazin-1-yl)-propoxy]-phenyl}-1H-benzoimidazole]: 0.078 µM. Still for that read-out and setting: next, `Cc1ccc2[nH]c(-c3ccc(OCCCN4CCN(C)CC4)cc3Cl)nc2c1` [Example 42, 2-{2-Chloro-4-[3-(4-methyl-piperazin-1-yl)-propoxy]-phenyl}-5-methyl-1H-benzoimidazole]: 0.079 µM; `CN1CCN(CCCOc2ccc(-c3nc4cc(Cl)ccc4[nH]3)cc2Cl)CC1` [Example 43, 5-Chloro-2-{3-chloro-4-[3-(4-methyl-piperazin-1-yl)-propoxy]-phenyl}-1H-benzoimidazole]: 0.082 µM; `CN1CCN(CCCOc2ccc(-c3nc4cc(C(F)(F)F)ccc4[nH]3)cc2Cl)CC1` [Example 44, 2-{3-Chloro-4-[3-(4-methyl-piperazin-1-yl)-propoxy]-phenyl}-5-trifluoromethyl-1H-benzoimidazole]: 0.087 µM. On the same count and under the same terms, the same measure for `Cc1cc(-c2nc3cc(Cl)c(F)cc3[nH]2)ccc1OCCCN1CCN(C)CC1` [Example 45, 5-Chloro-6-fluoro-2-{3-methyl-4-[3-(4-methyl-piperazin-1-yl)-propoxy]-phenyl}-1H-benzoimidazole]: 0.11 µM; for `Cc1ccc2[nH]c(-c3ccc(OCCCN4CCN(C)CC4)c(C)c3)nc2c1` [Example 46, 5-Methyl-2-{3-methyl-4-[3-(4-methyl-piperazin-1-yl)-propoxy]-phenyl}-1H-benzoimidazole]: 0.113 µM.

`CN1CCN(CCCOc2ccc(-c3nc4ccccc4[nH]3)cc2Cl)CC1` [Example 47, 2-{3-Chloro-4-[3-(4-methyl-piperazin-1-yl)-propoxy]-phenyl}-1H-benzoimidazole]: the Ki is 0.129 µM.

For the molecule `Cc1cc(-c2nc3ccccc3[nH]2)ccc1OCCCN1CCN(C)CC1` [Example 48, 2-{3-Methyl-4-[3-(4-methyl-piperazin-1-yl)-propoxy]-phenyl}-1H-benzoimidazole], the Ki was 0.154 µM. Still for that read-out and setting: the same measure for `CN1CCN(CCCOc2ccc(-c3nc4ccccc4[nH]3)c(Cl)c2)CC1` [Example 49, 2-{2-Chloro-4-[3-(4-methyl-piperazin-1-yl)-propoxy]-phenyl}-1H-benzoimidazole]: 0.173 µM; for `COc1cc(-c2nc3cc(Cl)c(F)cc3[nH]2)ccc1OCCCN1CCN(C)CC1` [Example 50, 5-Chloro-6-fluoro-2-{3-methoxy-4-[3-(4-methyl-piperazin-1-yl)-propoxy]-phenyl}-1H-benzoimidazole]: 0.187 µM.

For `COc1ccc2[nH]c(-c3ccc(OCCCN4CCN(C)CC4)c(Cl)c3)nc2c1` [Example 51, 2-{3-Chloro-4-[3-(4-methyl-piperazin-1-yl)-propoxy]-phenyl}-5-methoxy-1H-benzoimidazole], the Ki was 0.278 µM. Still for that read-out and setting: next, `CN1CCN(CCCOc2c(Br)cc(-c3nc4cc(C(C)(C)C)ccc4[nH]3)cc2Br)CC1` [Example 52, 5-tert-Butyl-2-{3,5-dibromo-4-[3-(4-methyl-piperazin-1-yl)-propoxy]-phenyl}-1H-benzoimidazole]: 0.641 µM; `COc1cc(OCCCN2CCN(C)CC2)ccc1-c1nc2cc(C(F)(F)F)ccc2[nH]1` [Example 53, 2-{2-Methoxy-4-[3-(4-methyl-piperazin-1-yl)-propoxy]-phenyl}-5-trifluoromethyl-1H-benzoimidazole]: 0.872 µM.

For the molecule `CN1CCN(CCCOc2ccc(-c3nc4cc(C(F)(F)F)ccc4[nH]3)c(Cl)c2)CC1` [Example 54, 2-{2-Chloro-4-[3-(4-methyl-piperazin-1-yl)-propoxy]-phenyl}-5-trifluoromethyl-1H-benzoimidazole], the inhibition constant Ki stood at 0.03 µM.

Consider `CN1CCN(CCCOc2cccc(-c3nc4ccccc4[nH]3)c2)CC1` [Example 55, 2-{3-[3-(4-Methyl-piperazin-1-yl)-propoxy]-phenyl}-1H-benzoimidazole], for which the Ki worked out at 0.203 µM. Same read-out and setting: the same measure for `CN1CCN(CCCCOc2cccc(-c3nc4cc(C(=O)c5ccccc5)ccc4[nH]3)c2)CC1` [Example 56, (2-{3-[4-(4-Methyl-piperazin-1-yl)-butoxy]-phenyl}-1H-benzoimidazol-5-yl)-phenyl-methanone]: 0.324 µM; for `Cc1cc(Cl)cc2[nH]c(-c3ccc(OCCCC4CCN(C)CC4)cc3Cl)nc12` [Example 57, 6-Chloro-2-{2-chloro-4-[3-(1-methyl-piperidin-4-yl)-propoxy]-phenyl}-4-methyl-1H-benzoimidazole]: 0.017 µM.

In the case of `CN1CCC(CCCOc2ccc(-c3nc4cc(C(C)(C)C)ccc4[nH]3)cc2Cl)CC1` [Example 58, 5-tert-Butyl-2-{3-chloro-4-[3-(1-methyl-piperidin-4-yl)-propoxy]-phenyl}-1H-benzoimidazole], the Ki came out at 0.101 µM.

`Cc1ccc2[nH]c(-c3ccc(OCCCC4CCN(C)CC4)cc3Cl)nc2c1C` [Example 59, 2-{2-Chloro-4-[3-(1-methyl-piperidin-4-yl)-propoxy]-phenyl}-4,5-dimethyl-1H-benzoimidazole]: the Ki came to 0.086 µM. The same measure, in the same setting: the same measure for `Cc1cc2[nH]c(-c3ccc(OCCCC4CCN(C)CC4)cc3)nc2cc1Cl` [Example 60, 5-Chloro-6-methyl-2-{4-[3-(1-methyl-piperidin-4-yl)-propoxy]-phenyl}-1H-benzoimidazole]: 0.039 µM; for `CN1CCC(CCCOc2ccc(-c3nc4cc(Cl)ccc4[nH]3)cc2)CC1` [Example 61, 5-Chloro-2-{4-[3-(1-methyl-piperidin-4-yl)-propoxy]-phenyl}-1H-benzoimidazole]: 0.049 µM. Same read-out and setting: the same measure for `CN1CCC(CCCOc2ccc(-c3nc4cc(Cl)c(F)cc4[nH]3)cc2)CC1` [Example 62, 5-Chloro-6-fluoro-2-{4-[3-(1-methyl-piperidin-4-yl)-propoxy]-phenyl}-1H-benzoimidazole]: 0.051 µM. Regarding `CN1CCC(CCCOc2ccc(-c3nc4cc(C(C)(C)C)ccc4[nH]3)cc2)CC1` [Example 63, 5-tert-Butyl-2-{4-[3-(1-methyl-piperidin-4-yl)-propoxy]-phenyl}-1H-benzoimidazole], the Ki was 0.057 µM. Same read-out and setting: next, `Cc1ccc2[nH]c(-c3ccc(OCCCC4CCN(C)CC4)cc3)nc2c1` [Example 64, 5-Methyl-2-{4-[3-(1-methyl-piperidin-4-yl)-propoxy]-phenyl}-1H-benzoimidazole]: 0.121 µM; `Cc1cc(Cl)cc2[nH]c(-c3ccc(OCCCC4CCN(C)CC4)cc3F)nc12` [Example 66, 6-Chloro-2-{2-fluoro-4-[3-(1-methyl-piperidin-4-yl)-propoxy]-phenyl}-4-methyl-1H-benzoimidazole]: 0.032 µM; `Cc1cc(OCCCC2CCN(C)CC2)ccc1-c1nc2cc(F)ccc2[nH]1` [Example 67, 5-Fluoro-2-{2-methyl-4-[3-(1-methyl-piperidin-4-yl)-propoxy]-phenyl}-1H-benzoimidazole]: 0.001 µM.

For the molecule `Cc1cc(OCCCC2CCN(C)CC2)ccc1-c1nc2c(Cl)cccc2[nH]1` [Example 68, 4-Chloro-2-{2-methyl-4-[3-(1-methyl-piperidin-4-yl)-propoxy]-phenyl}-1H-benzoimidazole], the Ki was found to be 0.005 µM. Same read-out and setting: the same measure for `Cc1cc(OCCCC2CCN(C)CC2)ccc1-c1nc2c(C)cc(Cl)cc2[nH]1` [Example 69, 6-Chloro-4-methyl-2-{2-methyl-4-[3-(1-methyl-piperidin-4-yl)-propoxy]-phenyl}-1H-benzoimidazole]: 0.006 µM. On the same count and under the same terms, next, `CN1CCC(CCCOc2ccc(-c3nc4cc(Cl)c(F)cc4[nH]3)c(Cl)c2)CC1` [Example 70, 5-Chloro-2-{2-chloro-4-[3-(1-methyl-piperidin-4-yl)-propoxy]-phenyl}-6-fluoro-1H-benzoimidazole]: 0.02 µM.
